Measured values taken from article PMC5992652, “Insight into the functional roles of Glu175 in the hyperthermostable xylanase XYL10C-ΔN through structural analysis and site-saturation mutagenesis” (Biotechnology for Biofuels, 2018).

Experiments:
[1] = molecular target: T1, XYL10C (Bispora sp. MEY-1, UniProt D0QF43); test: HPAEC of hydrolysis products; format: biochemical; details: pH 4.5, 70 °C, 16 h, Na2HPO4-citric acid; products mainly xylose and xylobiose
T1 construct: 18-residue signal peptide
T1 sequence (D0QF43 19-424): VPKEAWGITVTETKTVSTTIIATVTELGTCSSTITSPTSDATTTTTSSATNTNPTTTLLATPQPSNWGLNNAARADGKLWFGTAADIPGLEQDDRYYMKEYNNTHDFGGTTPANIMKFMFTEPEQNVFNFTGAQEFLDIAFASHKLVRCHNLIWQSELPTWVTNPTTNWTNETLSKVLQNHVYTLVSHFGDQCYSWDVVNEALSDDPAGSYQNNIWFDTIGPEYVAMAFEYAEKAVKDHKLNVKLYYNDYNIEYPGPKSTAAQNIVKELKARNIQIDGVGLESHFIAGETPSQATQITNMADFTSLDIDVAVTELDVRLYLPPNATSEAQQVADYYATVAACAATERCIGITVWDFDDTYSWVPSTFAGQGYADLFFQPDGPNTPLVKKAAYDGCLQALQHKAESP

[2] = molecular target: T2, XYL10C-ΔN (Bispora sp. MEY-1, UniProt D0QF43); test: HPAEC of hydrolysis products; format: biochemical; details: pH 4.5, 70 °C, 16 h, Na2HPO4-citric acid; products mainly xylose and xylobiose
T2 construct: 18-residue signal peptide and the next 66 N-terminal residues removed; pPIC9, Pichia pastoris GS115; deglycosylated with Endo Hf; two monomers in asymmetric unit

OC1OC[C@@H](O[C@@H]2OC[C@@H](O[C@@H]3OC[C@@H](O[C@@H]4OC[C@@H](O[C@@H]5OC[C@@H](O[C@@H]6OC[C@@H](O)[C@H](O)[C@H]6O)[C@H](O)[C@H]5O)[C@H](O)[C@H]4O)[C@H](O)[C@H]3O)[C@H](O)[C@H]2O)[C@H](O)[C@H]1O (stereo partly shown) [X6, xylohexaose]
HPAEC of hydrolysis products [1]: employed an endo-mode of action to cleave xylotriose, xylotetraose, xylopentaose, xylohexaose | HPAEC of hydrolysis products [2]: employed an endo-mode of action to cleave xylotriose, xylotetraose, xylopentaose, xylohexaose

OC1OC[C@@H](O[C@@H]2OC[C@@H](O[C@@H]3OC[C@@H](O)[C@H](O)[C@H]3O)[C@H](O)[C@H]2O)[C@H](O)[C@H]1O (stereo partly shown) [X3, xylotriose]
HPAEC of hydrolysis products [1]: employed an endo-mode of action to cleave xylotriose, xylotetraose, xylopentaose, xylohexaose | HPAEC of hydrolysis products [2]: employed an endo-mode of action to cleave xylotriose, xylotetraose, xylopentaose, xylohexaose
